Data taken from the supplement of paper PMC8617591.

What was measured:
[1] = system: Mycobacterium tuberculosis Erdman (autoluminescent); experiment: total FIC50 (Loewe) at 50% inhibition, three-drug combination (log2); higher = more antagonistic
Experimental: (§1)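 DiaMOND equipotent three-drug combination dose responses (10 doses, 1.5- or 2-fold spacing, centred on IC90) against autoluminescent M. tuberculosis Erdman in 8 in vitro models. Read-out is OD600, or luminescence for the intracellular and dormancy models, normalised to untreated wells. Hill-fit Einf, AUC25 and GRinf are potency metrics; FIC50 and FIC90 are total Loewe fractional inhibitory concentrations as log2 (negative = synergy).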

[2] = system: Mycobacterium tuberculosis Erdman (autoluminescent); experiment: total FIC90 (Loewe) at 90% inhibition, three-drug combination (log2); higher = more antagonistic
Experimental: as §1

[3] = system: Mycobacterium tuberculosis Erdman (autoluminescent); experiment: AUC25, normalised area under dose response up to IC25 (three-drug combination) (fraction (0-1)); higher = more potent at low dose
Experimental: as §1

[4] = system: Mycobacterium tuberculosis Erdman (autoluminescent); experiment: GRinf, maximum normalised growth rate inhibition (three-drug combination) (unitless (-1 to 1)); higher = less effect (negative = killing)
Experimental: as §1

[5] = system: Mycobacterium tuberculosis Erdman (autoluminescent); experiment: Einf, fitted maximum growth inhibition of three-drug combination (fraction); higher = stronger maximal inhibition
Experimental: as §1

CC[C@@H](CO)NCCN[C@@H](CC)CO [ethambutol] + NNC(=O)c1ccncc1 [isoniazid] + CO[C@H]1/C=C/O[C@@]2(C)Oc3c(C)c(O)c4c(O)c(c(/C=N/N5CCN(C6CCCC6)CC5)c(O)c4c3C2=O)NC(=O)/C(C)=C\C=C\[C@H](C)[C@H](O)[C@@H](C)[C@@H](O)[C@@H](C)[C@H](OC(C)=O)[C@@H]1C [rifapentine]
Details | AUC25, [3] | Einf, [5] | GRinf, [4] | total FIC50, [1] | total FIC90, [2]
in vitro model: acidic pH 5.7, time point: constant (~7 days, model-specific) | 0.116 | 0.926 | -0.233 | -0.0354 | –
in vitro model: acidic pH 5.7, time point: terminal (~4-5 doublings, model-specific) | 0.0443 | 0.974 | -0.12 | 0.316 | -0.0587
in vitro model: intracellular J774, time point: constant = terminal | – | 0.961 | -0.299 | – | -1.77

Details | AUC25, [3] | Einf, [5] | GRinf, [4] | total FIC50, [1] | total FIC90, [2]
in vitro model: butyrate, time point: constant (~7 days, model-specific) | 0.0656 | 0.919 | -0.00839 | 0.419 | –
in vitro model: butyrate, time point: terminal (~4-5 doublings, model-specific) | 0.0504 | 0.961 | 0.0115 | 0.431 | -0.175
in vitro model: cholesterol 0.05 mM, time point: constant (~7 days, model-specific) | 0.0782 | 0.62 | 0.0218 | 0.251 | –
in vitro model: cholesterol 0.05 mM, time point: terminal (~4-5 doublings, model-specific) | 0.0679 | 0.705 | 0.236 | 0.672 | –
in vitro model: cholesterol-high 0.2 mM, time point: constant (~7 days, model-specific) | 0.0261 | 0.963 | -0.465 | 1.28 | –
in vitro model: cholesterol-high 0.2 mM, time point: terminal (~4-5 doublings, model-specific) | 0.0378 | 1 | -0.581 | 1.47 | 1.31
in vitro model: dormancy (butyrate + nitrate, low O2), time point: constant (~7 days, model-specific) | 0.123 | 0.85 | 0.351 | 0.273 | –
in vitro model: dormancy (butyrate + nitrate, low O2), time point: terminal (~4-5 doublings, model-specific) | 0.118 | 0.99 | -0.216 | 0.00837 | 0.792
in vitro model: standard 7H9 glycerol, time point: constant = terminal | 0.0469 | 0.904 | 0.0971 | 0.347 | –
in vitro model: valerate, time point: constant (~7 days, model-specific) | 0.0468 | 0.866 | 0.0486 | 0.524 | –
in vitro model: valerate, time point: terminal (~4-5 doublings, model-specific) | 0.0336 | 0.929 | 0.0406 | 0.609 | -0.125

CC[C@@H](CO)NCCN[C@@H](CC)CO [ethambutol] + NNC(=O)c1ccncc1 [isoniazid] + CO[C@H]1/C=C/O[C@@]2(C)Oc3c(C)c(O)c4c(O)c(c(/C=N/N5CCN(C)CC5)c(O)c4c3C2=O)NC(=O)/C(C)=C\C=C\[C@H](C)[C@H](O)[C@@H](C)[C@@H](O)[C@@H](C)[C@H](OC(C)=O)[C@@H]1C [rifampicin]
Details | AUC25, [3] | Einf, [5] | GRinf, [4] | total FIC50, [1] | total FIC90, [2]
in vitro model: acidic pH 5.7, time point: constant (~7 days, model-specific) | 0.104 | 0.899 | -0.0987 | -0.427 | –
in vitro model: acidic pH 5.7, time point: terminal (~4-5 doublings, model-specific) | 0.0385 | 0.97 | -0.0837 | 0.126 | -0.549
in vitro model: intracellular J774, time point: constant = terminal | – | 0.967 | -0.321 | – | -2.19

Details | AUC25, [3] | Einf, [5] | GRinf, [4] | total FIC50, [1] | total FIC90, [2]
in vitro model: butyrate, time point: constant (~7 days, model-specific) | 0.0804 | 0.936 | -0.0122 | 0.2 | –
in vitro model: butyrate, time point: terminal (~4-5 doublings, model-specific) | 0.0612 | 0.972 | -0.0091 | 0.238 | -0.403
in vitro model: cholesterol 0.05 mM, time point: constant (~7 days, model-specific) | 0.0636 | 0.617 | 0.000894 | -0.456 | –
in vitro model: cholesterol 0.05 mM, time point: terminal (~4-5 doublings, model-specific) | 0.0895 | 0.867 | 0.194 | 0.41 | –
in vitro model: cholesterol-high 0.2 mM, time point: constant (~7 days, model-specific) | 0.0326 | 0.915 | -0.23 | 0.757 | –
in vitro model: cholesterol-high 0.2 mM, time point: terminal (~4-5 doublings, model-specific) | 0.0525 | 0.997 | -0.778 | 0.99 | 0.871
in vitro model: dormancy (butyrate + nitrate, low O2), time point: constant (~7 days, model-specific) | 0.0838 | 0.872 | 0.364 | -0.262 | –
in vitro model: dormancy (butyrate + nitrate, low O2), time point: terminal (~4-5 doublings, model-specific) | 0.079 | 0.992 | -0.165 | 0.173 | -0.24
in vitro model: standard 7H9 glycerol, time point: constant = terminal | 0.0526 | 0.9 | 0.116 | 0.199 | –
in vitro model: valerate, time point: constant (~7 days, model-specific) | 0.0369 | 0.853 | 0.000652 | 0.253 | –
in vitro model: valerate, time point: terminal (~4-5 doublings, model-specific) | 0.0264 | 0.932 | 0.0672 | 0.302 | -0.619

CC[C@@H](CO)NCCN[C@@H](CC)CO [ethambutol] + NNC(=O)c1ccncc1 [isoniazid] + COc1c(N2C[C@@H]3CCCN[C@@H]3C2)c(F)cc2c(=O)c(C(=O)O)cn(C3CC3)c12 [moxifloxacin]
Details | AUC25, [3] | Einf, [5] | GRinf, [4] | total FIC50, [1] | total FIC90, [2]
in vitro model: acidic pH 5.7, time point: constant (~7 days, model-specific) | 0.0955 | 0.722 | -0.273 | -0.309 | –
in vitro model: acidic pH 5.7, time point: terminal (~4-5 doublings, model-specific) | 0.0597 | 0.933 | -0.253 | 0.821 | 0.326
in vitro model: intracellular J774, time point: constant = terminal | – | 0.976 | -0.437 | – | -0.746

Details | AUC25, [3] | Einf, [5] | GRinf, [4] | total FIC50, [1] | total FIC90, [2]
in vitro model: butyrate, time point: constant (~7 days, model-specific) | 0.0852 | 0.938 | -0.0732 | 0.655 | –
in vitro model: butyrate, time point: terminal (~4-5 doublings, model-specific) | 0.0658 | 0.974 | -0.0933 | 0.598 | 0.445
in vitro model: cholesterol 0.05 mM, time point: constant (~7 days, model-specific) | 0.119 | 0.798 | -0.268 | 0.425 | –
in vitro model: cholesterol 0.05 mM, time point: terminal (~4-5 doublings, model-specific) | 0.0714 | 0.92 | 0.0114 | 1.23 | 0.826
in vitro model: cholesterol-high 0.2 mM, time point: constant (~7 days, model-specific) | 0.0564 | 0.94 | -0.315 | 0.863 | –
in vitro model: cholesterol-high 0.2 mM, time point: terminal (~4-5 doublings, model-specific) | 0.0472 | 1 | -0.686 | 1.21 | 0.977
in vitro model: dormancy (butyrate + nitrate, low O2), time point: constant (~7 days, model-specific) | 0.119 | 0.851 | 0.356 | 0.357 | –
in vitro model: dormancy (butyrate + nitrate, low O2), time point: terminal (~4-5 doublings, model-specific) | 0.125 | 0.986 | -0.134 | -0.452 | 0.658
in vitro model: standard 7H9 glycerol, time point: constant = terminal | 0.0677 | 0.975 | -0.186 | 0.205 | 0.328
in vitro model: valerate, time point: constant (~7 days, model-specific) | 0.0908 | 0.876 | -0.0258 | 0.301 | –
in vitro model: valerate, time point: terminal (~4-5 doublings, model-specific) | 0.0784 | 0.953 | 0.0174 | 0.421 | 0.19
